Marks after values point to notes of the source that are not given here.
What was measured:
[1] = Pharmacokinetic study in rats (plasma, LC-MS/MS); conditions: for AUC(0-t) / MRT inf / half-life / Cmax / Tmax: rat, in vivo
Experimental: • (1) SD male rats were used as test animals.
The administration solvent was a physiological saline solution containing 10% DMSO + 10% polyoxyl castor oil (Cremophor EL). Fasting was maintained for approximately 12 hours prior to administration, and free feeding was allowed 4 hours post-administration, with no water restriction. […] After gently inverting the tube to fully mix the anticoagulant EDTA-K2 with the blood, the tube was immediately placed on wet ice. The plasma was separated by centrifugation immediately after blood collection under the following centrifugation conditions: 4°C, 3500 rpm, and 5 min. The upper plasma layer was transferred and stored at -80°C until sample analysis. […] The pharmacokinetic parameters were calculated from the sample analysis results using WinNonlin software.

[2] = system: miR124; test: Effect of the compound on miR124 upregulation in PBMCs (qPCR, U6 as internal reference); format: cell-based, human; conditions: miR-124 expression, 5 µM, 6 days, batches normalized
Experimental: The effect of test compounds on miR124 expression levels was evaluated in human peripheral blood mononuclear cells (PBMCs). […] Test compounds (final concentration: 5 µM) were added for treatment at 37°C, 5% CO2 for 6 days, with medium replacement on day 3. The control group was treated with an equal volume of DMSO under the same conditions.
RNA Extraction: On day 6, cells were collected in a 15 mL centrifuge tube and centrifuged at 400g for 10 min, followed by supernatant removal. […] The upper RNA layer was aspirated into a clean 1.5 mL centrifuge tube (RNase-free), an equal volume of isopropanol was added, and left at room temperature for 10 min to precipitate RNA. Centrifugation at 4°C and 12000g for 10 min yielded a small white pellet at the tube bottom.
Fluorescent quantitative PCR reaction: miRNA quantification was performed using SYBR Green I intercalating fluorescence method, with simultaneous detection of the housekeeping gene U6 transcript level as internal reference.

[3] = system: dextran sulfate sodium (DSS)-induced ulcerative colitis; test: Preventive and therapeutic effects on DSS-induced ulcerative colitis (UC) in mice; format: in vivo, C57BL/6 mice; conditions: for relative body weight (% of initial): mean ± SEM; for Relative colon length (%): of the control group
Experimental: The preventive and therapeutic effects of the positive drug ABX464 and Compound 23 of the present disclosure on dextran sulfate sodium (DSS)-induced ulcerative colitis were evaluated using a DSS-induced ulcerative colitis (UC) model.
Female C57BL/6 mice (20-22 g) were randomly divided into 7 groups according to body weight after adaptive feeding, as shown in Table 4. On day 1, the mice were switched to 3% DSS feeding. After 10 days of DSS feeding, they were switched back to normal drinking water until day 13. From day 1 to day 13, the mice were continuously administered the corresponding solvents and drugs by gavage. Body weight changes were recorded daily from day 1 to day 13. On day 13, after recording body weight, the mice were dissected to measure colon length. The preventive and therapeutic effects of the test drug on ulcerative colitis in mice were evaluated based on relative body weight change rate and colon length. Table 4. Experimental animal grouping and model induction period

[4] = 6.25-50 mg/kg qd by gavage, overall conclusion
[5] = day 13, 6.25 mg/kg qd by gavage
[6] = day 13, 12.5 mg/kg qd by gavage

Compound: CN(C)CCN(C)c1cc(Cl)cc2nc(Nc3ccc(OC(F)(F)F)cc3)ncc12 [Compound 44]
- F ([1]; absolute bioavailability, SD male rats, p.o. 25 mg/kg vs i.v. 1 mg/kg): 34.3%
- AUC(0-t) ([1]; iv, 1 mg/kg): 650 ng·h/mL
- MRT inf ([1]; iv, 1 mg/kg): 8.9 h
- half-life ([1]; iv, 1 mg/kg): 15.1 h
- AUC(0-t) ([1]; po, 25 mg/kg): 5570 ng·h/mL
- Cmax ([1]; po, 25 mg/kg): 389 ng/mL
- MRT inf ([1]; po, 25 mg/kg): 8.2 h
- Tmax ([1]; po, 25 mg/kg): 6 h
- half-life ([1]; po, 25 mg/kg): 8.7 h

Compound: FC(F)(F)Oc1ccc(Nc2ncc3ccc(Cl)cc3n2)cc1 [Compound 23]
- Average fold change compared to DMSO treatment, Average value [2]: 6.54
- effect on colon shortening in DSS-induced ulcerative colitis mice [3, 4]: good therapeutic effect on colon shortening
- effect on weight loss in DSS-induced ulcerative colitis mice [3, 4]: favorable restorative effect on weight loss
- weight loss ([3]; by day 9, 50 mg/kg qd by gavage): 3.09%
- weight loss ([3]; by day 10, 6.25 mg/kg qd by gavage): 7.52%
- weight loss ([3]; by day 10, 12.5 mg/kg qd by gavage): 8.99%
- weight loss ([3]; by day 10, 25 mg/kg qd by gavage): 7.96%
- weight loss ([3]; by day 10, 50 mg/kg qd by gavage): 3.8%
- relative body weight (% of initial) ([3]; day 1, 6.25 mg/kg qd by gavage): 100±0.00%
- relative body weight (% of initial) ([3]; day 1, 12.5 mg/kg qd by gavage): 100±0.00%
- relative body weight (% of initial) ([3]; day 1, 25 mg/kg qd by gavage): 100±0.00%
- relative body weight (% of initial) ([3]; day 1, 50 mg/kg qd by gavage): 100±0.00%
- relative body weight (% of initial) ([3]; day 2, 6.25 mg/kg qd by gavage): 101.5± 0.43%
- relative body weight (% of initial) ([3]; day 2, 12.5 mg/kg qd by gavage): 99.9±0.63%
- relative body weight (% of initial) ([3]; day 2, 25 mg/kg qd by gavage): 100.5± 0.37%
- relative body weight (% of initial) ([3]; day 2, 50 mg/kg qd by gavage): 99.1±0.65%
- relative body weight (% of initial) ([3]; day 3, 6.25 mg/kg qd by gavage): 102.4± 0.78%
- relative body weight (% of initial) ([3]; day 3, 12.5 mg/kg qd by gavage): 100.8± 0.67%
- relative body weight (% of initial) ([3]; day 3, 25 mg/kg qd by gavage): 101.1± 0.59%
- relative body weight (% of initial) ([3]; day 3, 50 mg/kg qd by gavage): 100.2±0.78%
- relative body weight (% of initial) ([3]; day 4, 6.25 mg/kg qd by gavage): 101.9± 1.02%
- relative body weight (% of initial) ([3]; day 4, 12.5 mg/kg qd by gavage): 99.9 ± 0.87%
- relative body weight (% of initial) ([3]; day 4, 25 mg/kg qd by gavage): 100.8± 0.44%
- relative body weight (% of initial) ([3]; day 4, 50 mg/kg qd by gavage): 100.0±0.74%
- relative body weight (% of initial) ([3]; day 5, 6.25 mg/kg qd by gavage): 101.7± 0.98%
- relative body weight (% of initial) ([3]; day 5, 12.5 mg/kg qd by gavage): 100.5± 0.88%
- relative body weight (% of initial) ([3]; day 5, 25 mg/kg qd by gavage): 99.8±0.61%
- relative body weight (% of initial) ([3]; day 5, 50 mg/kg qd by gavage): 100.7±1.01%
- relative body weight (% of initial) ([3]; day 6, 6.25 mg/kg qd by gavage): 100±0.97%
- relative body weight (% of initial) ([3]; day 6, 12.5 mg/kg qd by gavage): 97.4±0.87%
- relative body weight (% of initial) ([3]; day 6, 25 mg/kg qd by gavage): 97.5±0.81%
- relative body weight (% of initial) ([3]; day 6, 50 mg/kg qd by gavage): 98.0±1.15%
- relative body weight (% of initial) ([3]; day 7, 6.25 mg/kg qd by gavage): 96.4±1.18%
- relative body weight (% of initial) ([3]; day 7, 12.5 mg/kg qd by gavage): 95.0±1.12%
- relative body weight (% of initial) ([3]; day 7, 25 mg/kg qd by gavage): 95.3±0.98%
- relative body weight (% of initial) ([3]; day 7, 50 mg/kg qd by gavage): 96.9±1.03%
- relative body weight (% of initial) ([3]; day 8, 6.25 mg/kg qd by gavage): 94.4±1.50%
- relative body weight (% of initial) ([3]; day 8, 12.5 mg/kg qd by gavage): 92.7±1.28%
- relative body weight (% of initial) ([3]; day 8, 25 mg/kg qd by gavage): 93.7±1.43%
- relative body weight (% of initial) ([3]; day 8, 50 mg/kg qd by gavage): 96.7±1.20%
- relative body weight (% of initial) ([3]; day 9, 6.25 mg/kg qd by gavage): 93.4±1.75%
- relative body weight (% of initial) ([3]; day 9, 12.5 mg/kg qd by gavage): 92.7±1.55%
- relative body weight (% of initial) ([3]; day 9, 25 mg/kg qd by gavage): 92.6±2.25%
- relative body weight (% of initial) ([3]; day 9, 50 mg/kg qd by gavage): 96.9± 1.41 %
- relative body weight (% of initial) ([3]; day 10, 6.25 mg/kg qd by gavage): 92.5± 2.02 %
- relative body weight (% of initial) ([3]; day 10, 12.5 mg/kg qd by gavage): 91.0± 1.78 %
- relative body weight (% of initial) ([3]; day 10, 25 mg/kg qd by gavage): 92.0± 2.38 %
- relative body weight (% of initial) ([3]; day 10, 50 mg/kg qd by gavage): 96.2± 1.38 %
- relative body weight (% of initial) ([3]; day 11, 6.25 mg/kg qd by gavage): 92.4±2.22%
- relative body weight (% of initial) ([3]; day 11, 12.5 mg/kg qd by gavage): 91.9±1.91%
- relative body weight (% of initial) ([3]; day 11, 25 mg/kg qd by gavage): 94.6± 1.73 %
- relative body weight (% of initial) ([3]; day 11, 50 mg/kg qd by gavage): 96.6± 1.45 %
- relative body weight (% of initial) ([3]; day 12, 6.25 mg/kg qd by gavage): 92.7±2.19%
- relative body weight (% of initial) ([3]; day 12, 12.5 mg/kg qd by gavage): 92.1±1.17%
- relative body weight (% of initial) ([3]; day 12, 25 mg/kg qd by gavage): 93.5±1.57%
- relative body weight (% of initial) ([3]; day 12, 50 mg/kg qd by gavage): 96.5± 1.62 %
- Colon length Mean [3, 5]: 7.18 cm
- relative body weight (% of initial) [3, 5]: 92.0±2.52%
- Colon length Mean [3, 6]: 7.85 cm
- relative body weight (% of initial) [3, 6]: 92.1±1.17%
- Colon length Mean ([3]; day 13, 25 mg/kg qd by gavage): 7.28 cm
- relative body weight (% of initial) ([3]; day 13, 25 mg/kg qd by gavage): 95.3±1.63%
- Colon length Mean ([3]; day 13, 50 mg/kg qd by gavage): 8.27 cm
- relative body weight (% of initial) ([3]; day 13, 50 mg/kg qd by gavage): 96.5± 1.62 %
- Relative colon length (%) ([3]; day 13, 6.25 mg/kg qd by gavage, 6.25 mg/kg): 89.8### %
- Relative colon length (%) ([3]; day 13, 6.25 mg/kg qd by gavage, listed as compound 23, 6.25 mg/kg): 89.79%
- Relative colon length (%) ([3]; day 13, 12.5 mg/kg qd by gavage, 12.5 mg/kg): 98.1#### %
- Relative colon length (%) ([3]; day 13, 12.5 mg/kg qd by gavage, listed as compound 23, 12.5 mg/kg): 98.1%
- Relative colon length (%) ([3]; day 13, 25 mg/kg qd by gavage, 25 mg/kg): 90.9#### %
- Relative colon length (%) ([3]; day 13, 25 mg/kg qd by gavage, listed as compound 23, 25 mg/kg): 90.9%
- Relative colon length (%) ([3]; day 13, 50 mg/kg qd by gavage, 50 mg/kg): 103.4#### %
- Relative colon length (%) ([3]; day 13, 50 mg/kg qd by gavage, listed as compound 23, 50 mg/kg): 103.3%
- AUC(0-t) ([1]; po, 20 mg/kg): 5060 ng·h/mL
- Cmax ([1]; po, 20 mg/kg): 1850 ng/mL
- MRT inf ([1]; po, 20 mg/kg): 2.2 h
- Tmax ([1]; po, 20 mg/kg): 2 h
- half-life ([1]; po, 20 mg/kg): 2.65 h
